Assay results: patent US10681909B2, “Herbicidal triazoles” (FMC Corporation, priority 2014, dated 2020)

Columns and labels:
crabgrass, large = experiment: Test E preemergence; assay type: in vivo, Digitaria sanguinalis; conditions: scale 0 to 100
Excerpt: (§1) Seeds of plant species selected from corn (Zea mays), soybean (Glycine max), lambsquarters (Chenopodium album), poinsettia, wild (wild poinsettia, Euphorbia heterophylla), pigweed, palmer (palmer pigweed, Amaranthus palmeri), waterhemp (common waterhemp, Amaranthus rudis), surinam grass (Brachiaria decumbens), crabgrass, large (large crabgrass, Digitaria sanguinalis), crabgrass, Brazilian (Brazilian crabgrass, Digitaria horizontalis), panicum, fall (fall panicum, Panicum dichotomiflorum), foxtail, giant (giant foxtail, Setaria faberii), foxtail, green (green foxtail, Setaria viridis), goosegrass (Eleusine indica), johnsongrass (Sorghum halepense), ragweed (common ragweed, Ambrosia elatior), barnyardgrass (Echinochloa crus-galli), sandbur (southern sandbur, Cenchrus echinatus), arrowleaf sida (Sida rhombifolia), ryegrass, Italian (Italian ryegrass, Lolium multiflorum), dayflower, VA (Virginia dayflower, Commelina virginica), field bindweed (Convolvulus arvensis), cocklebur (common cocklebur, Xanthium strumarium), morningglory (Ipomoea coccinea), nightshade (eastern black nightshade, Solanum ptycanthum), kochia (Kochia scoparia), nutsedge, yellow (yellow nutsedge, Cyperus esculentus), smartweed (ladysthumb smartweed, Polygonum persicaria), velvetleaf (Abutilon theophrasti), horseweed (Conyza canadensis), and beggarticks (hairy beggarticks, Bidens pilosa), were planted into a silt loam soil and treated preemergence with test chemicals formulated in a non-phytotoxic solvent mixture which included a surfactant.
(§2) At the same time, plants from these crop and weed species and also waterhemp_RES1, (ALS & Triazine resistant common waterhemp, Amaranthus rudis), and waterhemp_RES2, (ALS & HPPD resistant common waterhemp, Amaranthus rudis) were planted in pots containing Sunshine Redi-Earth® planting medium comprising spaghnum peat moss, vermiculite, starter nutrients and dolomitic limestone were treated with postemergence applications of test chemicals formulated in the same manner. Plants ranged in height from 2 to 18 cm for postemergence treatments (1- to 4-leaf stage). Treated plants and controls were maintained in a greenhouse for 14 to 21 d, after which time all species were compared to controls and visually evaluated. Plant response ratings, summarized in Table E, are based on a scale of 0 to 100 where 0 is no effect and 100 is complete control. A dash (-) response means no test result.

panicum, fall [1] = experiment: Test E postemergence; assay type: in vivo, Panicum dichotomiflorum; conditions: scale 0 to 100
Excerpt: as §1, §2

arrowleaf sida [2] = experiment: Test E preemergence; assay type: in vivo, Sida rhombifolia; conditions: scale 0 to 100
Excerpt: as §1, §2

soybean [3] = experiment: Test E postemergence; assay type: in vivo, Glycine max; conditions: scale 0 to 100
Excerpt: as §1, §2

nutsedge, yellow = experiment: Test E preemergence; assay type: in vivo, Cyperus esculentus; conditions: scale 0 to 100
Excerpt: as §1, §2

ryegrass, Italian = experiment: Test E preemergence; assay type: in vivo, Lolium multiflorum; conditions: scale 0 to 100
Excerpt: as §1, §2

morningglory = experiment: Test E preemergence; assay type: in vivo, Ipomoea coccinea; conditions: scale 0 to 100
Excerpt: as §1, §2

velvetleaf = experiment: Test E preemergence; assay type: in vivo, Abutilon theophrasti; conditions: scale 0 to 100
Excerpt: as §1, §2

johnsongrass = experiment: Test E preemergence; assay type: in vivo, Sorghum halepense; conditions: scale 0 to 100
Excerpt: as §1, §2

panicum, fall [4] = experiment: Test E preemergence; assay type: in vivo, Panicum dichotomiflorum; conditions: scale 0 to 100
Excerpt: as §1, §2

soybean [5] = experiment: Test E preemergence; assay type: in vivo, Glycine max; conditions: scale 0 to 100
Excerpt: as §1, §2

foxtail, giant = experiment: Test E preemergence; assay type: in vivo, Setaria faberii; conditions: scale 0 to 100
Excerpt: as §1, §2

barnyardgrass = experiment: Test E preemergence; assay type: in vivo, Echinochloa crus-galli; conditions: scale 0 to 100
Excerpt: as §1, §2

surinam grass = experiment: Test E preemergence; assay type: in vivo, Brachiaria decumbens; conditions: scale 0 to 100
Excerpt: as §1, §2

beggarticks = experiment: Test E preemergence; assay type: in vivo, Bidens pilosa; conditions: scale 0 to 100
Excerpt: as §1, §2

crabgrass, Brazilian = experiment: Test E preemergence; assay type: in vivo, Digitaria horizontalis; conditions: Brazil, scale 0 to 100
Excerpt: as §1, §2

arrowleaf sida [6] = experiment: Test E postemergence; assay type: in vivo, Sida rhombifolia; conditions: scale 0 to 100
Excerpt: as §1, §2

corn = experiment: Test E postemergence; assay type: in vivo, Zea mays; conditions: scale 0 to 100
Excerpt: as §1, §2

sandbur = experiment: Test E postemergence; assay type: in vivo, Cenchrus echinatus; conditions: scale 0 to 100
Excerpt: as §1, §2

waterhemp = experiment: Test E preemergence; assay type: in vivo, Amaranthus rudis; conditions: scale 0 to 100
Excerpt: as §1, §2

Measured: Plant response rating

CCc1nc(-c2ccc(C(F)(F)F)cc2)nn1Cc1ccnc(C(F)(F)F)c1 [Compound 1, 4-[[5-ethyl-3-[4-(trifluoromethyl)phenyl]-1H-1,2,4-triazol-1-yl]methyl]-2-(trifluoromethyl)pyridine]
80: crabgrass, large; 62 g ai/ha | panicum, fall [4]; 62 g ai/ha | foxtail, giant; 62 g ai/ha | foxtail, giant; 125 g ai/ha
20: panicum, fall [1]; 31 g ai/ha | panicum, fall [1]; 62 g ai/ha | panicum, fall [1]; 125 g ai/ha | arrowleaf sida [2]; 62 g ai/ha | arrowleaf sida [2]; 125 g ai/ha | ryegrass, Italian; 62 g ai/ha | ryegrass, Italian; 125 g ai/ha | foxtail, giant; 16 g ai/ha | surinam grass; 125 g ai/ha | surinam grass; 250 g ai/ha | beggarticks; 125 g ai/ha | sandbur; 125 g ai/ha | sandbur; 250 g ai/ha | waterhemp; 16 g ai/ha
100: crabgrass, large; 250 g ai/ha | morningglory; 250 g ai/ha | panicum, fall [4]; 125 g ai/ha | panicum, fall [4]; 250 g ai/ha | crabgrass, Brazilian; 250 g ai/ha | waterhemp; 125 g ai/ha | waterhemp; 250 g ai/ha
35: soybean [5]; 250 g ai/ha
60: crabgrass, large; 16 g ai/ha | morningglory; 125 g ai/ha | johnsongrass; 250 g ai/ha | panicum, fall [4]; 31 g ai/ha | beggarticks; 250 g ai/ha
75: crabgrass, large; 31 g ai/ha
10: panicum, fall [1]; 16 g ai/ha | arrowleaf sida [2]; 31 g ai/ha | nutsedge, yellow; 250 g ai/ha | morningglory; 16 g ai/ha | velvetleaf; 31 g ai/ha | velvetleaf; 62 g ai/ha | johnsongrass; 16 g ai/ha | soybean [5]; 125 g ai/ha | barnyardgrass; 31 g ai/ha | surinam grass; 62 g ai/ha | corn; 125 g ai/ha | corn; 250 g ai/ha | sandbur; 16 g ai/ha
15: johnsongrass; 31 g ai/ha | panicum, fall [4]; 16 g ai/ha | sandbur; 31 g ai/ha | sandbur; 62 g ai/ha
50: arrowleaf sida [2]; 250 g ai/ha | soybean [3]; 62 g ai/ha | soybean [3]; 125 g ai/ha | velvetleaf; 250 g ai/ha | johnsongrass; 125 g ai/ha | barnyardgrass; 250 g ai/ha | arrowleaf sida [6]; 62 g ai/ha
85: arrowleaf sida [6]; 250 g ai/ha
40: soybean [3]; 16 g ai/ha | soybean [3]; 31 g ai/ha | ryegrass, Italian; 250 g ai/ha | morningglory; 31 g ai/ha | johnsongrass; 62 g ai/ha | arrowleaf sida [6]; 31 g ai/ha
0: arrowleaf sida [2]; 16 g ai/ha | nutsedge, yellow; 16 g ai/ha | nutsedge, yellow; 31 g ai/ha | nutsedge, yellow; 62 g ai/ha | nutsedge, yellow; 125 g ai/ha | ryegrass, Italian; 16 g ai/ha | ryegrass, Italian; 31 g ai/ha | velvetleaf; 16 g ai/ha | soybean [5]; 16 g ai/ha | soybean [5]; 31 g ai/ha | soybean [5]; 62 g ai/ha | barnyardgrass; 16 g ai/ha | surinam grass; 16 g ai/ha | surinam grass; 31 g ai/ha | beggarticks; 16 g ai/ha | beggarticks; 31 g ai/ha | beggarticks; 62 g ai/ha
5: corn; 16 g ai/ha | corn; 31 g ai/ha | corn; 62 g ai/ha
70: arrowleaf sida [6]; 125 g ai/ha
98: foxtail, giant; 250 g ai/ha | crabgrass, Brazilian; 62 g ai/ha | crabgrass, Brazilian; 125 g ai/ha
30: panicum, fall [1]; 250 g ai/ha | velvetleaf; 125 g ai/ha | foxtail, giant; 31 g ai/ha | barnyardgrass; 62 g ai/ha | barnyardgrass; 125 g ai/ha | arrowleaf sida [6]; 16 g ai/ha
95: crabgrass, large; 125 g ai/ha | waterhemp; 31 g ai/ha | waterhemp; 62 g ai/ha
65: soybean [3]; 250 g ai/ha
